pIC50: −log10 of the molar value.
Experiments:
pAKT in BT474 cells = assay: Cell-based pAKT HTRF assay in BT474 cells; conditions: BT474 cells; 4 hr incubation; Compounds 10-999; read-out: pAKT inhibition IC50 in BT474 cells
How it was run: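 Treatment lasts 4 hr in DMEM/10% FBS at 0.25% DMSO over nine 3-fold dilutions from 3 μM. The lysate is then probed by HTRF.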

[1] = target: Cys242 in human PIK3CA (157-299) (Homo sapiens (Human), UniProt P42336); assay: Covalent modification assay using MALDI-TOF MS; type: biochemical; conditions: 4 h reaction time point; 3.33 μM protein target, 1:7.5 protein to compound ratio (compounds 1-852)
How it was run: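 PIK3CA (157-299) at 3.33 μM or 1 μM in 20 mM HEPES, 150 mM NaCl, 2 mM MgCl2, pH 7.3 was incubated with compound (from 10 mM DMSO stocks) in the dark at room temperature for 15 min, 30 min, 2 h or 4 h. Linear-mode MALDI-TOF peak heights gave percent modification.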

Sequence of Cys242 in human PIK3CA (157-299) (P42336 157-299): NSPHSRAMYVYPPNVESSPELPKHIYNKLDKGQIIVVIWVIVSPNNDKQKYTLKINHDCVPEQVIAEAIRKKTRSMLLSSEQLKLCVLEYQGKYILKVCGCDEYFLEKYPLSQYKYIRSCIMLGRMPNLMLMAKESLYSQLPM

SMILES: C=CC(=O)N1CCn2nc(-c3nc(-c4ccc5cnn(C)c5c4)c4ccsc4c3-c3c(F)cc(F)cc3OCC(C)O)cc2C1C (stereo not drawn) [Compound 677]
- pIC50 (pAKT in BT474 cells): > 7.00
- % of modification [1]: A (percent of modification of PIK3CA protein ≥75%)

SMILES: C=CC(=O)N1CCn2nc(-c3nc(-c4ccc5cnncc5c4)c4ccsc4c3-c3c(F)cc(F)cc3OCC(C)O)cc2C1C (stereo not drawn) [Compound 678]
- pIC50 (pAKT in BT474 cells): > 7.00
- % of modification [1]: A (percent of modification of PIK3CA protein ≥75%)

SMILES: C=CC(=O)N1Cc2cc(-c3nc(-c4ccc5cnn(C)c5c4)c4ccsc4c3-c3c(F)cc(F)cc3OCC(C)O)nn2C(C)C1 (stereo not drawn) [Compound 680]
- pIC50 (pAKT in BT474 cells): > 7.00
- % of modification [1]: A (percent of modification of PIK3CA protein ≥75%)

SMILES: C=CC(=O)N1Cc2cc(-c3nc(-c4ccc5oc(C)nc5c4)c4ccsc4c3-c3c(F)cc(F)cc3OCC(C)O)nn2C(C)C1 (stereo not drawn) [Compound 683]
- pIC50 (pAKT in BT474 cells): > 7.00
- % of modification [1]: A (percent of modification of PIK3CA protein ≥75%)

SMILES: C=CC(=O)N1Cc2cc(-c3nc(-c4cc5n(n4)CCNC5=O)c4ccsc4c3-c3c(F)cc(F)cc3OCCOC)nn2C[C@H]1C [Compound 685]
- pIC50 (pAKT in BT474 cells): > 7.00
- % of modification [1]: A (percent of modification of PIK3CA protein ≥75%)

SMILES: C=CC(=O)N1Cc2cc(-c3nc(-c4cnc(C)nc4)c4ccsc4c3-c3c(F)cc(F)cc3OCCOC)nn2C[C@H]1C [Compound 686]
- pIC50 (pAKT in BT474 cells): > 7.00
- % of modification [1]: A (percent of modification of PIK3CA protein ≥75%)

SMILES: C=CC(=O)N1Cc2cc(-c3nc(-c4cnc5c(c4)CN(C)C5=O)c4ccsc4c3-c3c(F)cc(F)cc3OCCOC)nn2C[C@H]1C [Compound 687]
- pIC50 (pAKT in BT474 cells): > 7.00
- % of modification [1]: A (percent of modification of PIK3CA protein ≥75%)

SMILES: C=CC(=O)N1Cc2cc(-c3nc(-c4cnc5c(c4)CNC(=O)C5)c4ccsc4c3-c3c(F)cc(F)cc3OCCOC)nn2[C@@H](C)C1 [Compound 688]
- pIC50 (pAKT in BT474 cells): > 7.00
- % of modification [1]: A (percent of modification of PIK3CA protein ≥75%)

SMILES: C=CC(=O)N1Cc2cc(-c3nc(-c4ccc5ncn(C)c5c4)c4ccsc4c3-c3c(F)cc(F)cc3OCCOC)nn2C[C@H]1C [Compound 689]
- pIC50 (pAKT in BT474 cells): > 7.00
- % of modification [1]: A (percent of modification of PIK3CA protein ≥75%)

SMILES: C=CC(=O)N1Cc2cc(-c3nc(-c4ccc5cn[nH]c5c4)c4ccsc4c3-c3c(F)cc(F)cc3OCCOC)nn2C[C@H]1C [Compound 690]
- pIC50 (pAKT in BT474 cells): > 7.00
- % of modification [1]: A (percent of modification of PIK3CA protein ≥75%)

SMILES: C=CC(=O)N1Cc2cc(-c3nc(-c4ccc5c(c4)CNC5=O)c4ccsc4c3-c3c(F)cc(F)cc3OCCOC)nn2C[C@H]1C [Compound 691]
- pIC50 (pAKT in BT474 cells): > 7.00
- % of modification [1]: A (percent of modification of PIK3CA protein ≥75%)

SMILES: C=CC(=O)N1Cc2cc(-c3nc(-c4ccc5c(c4)N(C)C(=O)C5)c4ccsc4c3-c3c(F)cc(F)cc3OCCOC)nn2C[C@H]1C [Compound 692]
- pIC50 (pAKT in BT474 cells): > 7.00
- % of modification [1]: A (percent of modification of PIK3CA protein ≥75%)

SMILES: C=CC(=O)N1Cc2cc(-c3nc(-c4ccc5nncn5c4)c4ccsc4c3-c3c(F)cc(F)cc3OCCOC)nn2[C@@H](C)C1 [Compound 693]
- pIC50 (pAKT in BT474 cells): > 7.00
- % of modification [1]: A (percent of modification of PIK3CA protein ≥75%)

SMILES: C=CC(=O)N1CCn2nc(-c3nc(-c4ccc5ncn(C)c5c4)c4ccsc4c3-c3c(F)cc(F)cc3OCCOC)cc2[C@@H]1C [Compound 702]
- pIC50 (pAKT in BT474 cells): > 7.00
- % of modification [1]: A (percent of modification of PIK3CA protein ≥75%)

SMILES: C=CC(=O)N1Cc2cc(-c3nc(-c4ccc5[nH]cnc5c4)c4ccsc4c3-c3c(F)cc(F)cc3OCCOC)nn2C[C@H]1C [Compound 720]
- pIC50 (pAKT in BT474 cells): > 7.00
- % of modification [1]: A (percent of modification of PIK3CA protein ≥75%)

SMILES: C=CC(=O)N1CCn2nc(-c3nc(-c4ccc5c(c4)CCN(C)C5)c4ccsc4c3-c3c(F)cc(F)cc3OC[C@@H](C)O)cc2[C@H]1C [Compound 721]
- pIC50 (pAKT in BT474 cells): > 7.00
- % of modification [1]: A (percent of modification of PIK3CA protein ≥75%)

SMILES: C=CC(=O)N1Cc2cc(-c3nc(-c4ccn(C)n4)c4ccsc4c3-c3c(F)cc(F)cc3OCCOC)nn2C[C@H]1C [Compound 722]
- pIC50 (pAKT in BT474 cells): > 7.00
- % of modification [1]: A (percent of modification of PIK3CA protein ≥75%)

SMILES: C=CC(=O)N1Cc2cc(-c3nc(-c4cnn(C5CCC5)c4)c4ccsc4c3-c3c(F)cc(F)cc3OCCOC)nn2C[C@H]1C [Compound 723]
- pIC50 (pAKT in BT474 cells): > 7.00
- % of modification [1]: A (percent of modification of PIK3CA protein ≥75%)

SMILES: C=CC(=O)N1Cc2cc(-c3nc(-c4cnn(C)c4)c4ccsc4c3-c3c(F)cc(F)cc3OC[C@@H](C)O)nn2C[C@H]1C [Compound 724]
- pIC50 (pAKT in BT474 cells): > 7.00
- % of modification [1]: A (percent of modification of PIK3CA protein ≥75%)

SMILES: C=CC(=O)N1Cc2cc(-c3nc(-c4ccc5c(cnn5C)c4)c4ccsc4c3-c3c(F)cc(F)cc3OC[C@@H](C)O)nn2C[C@H]1C [Compound 725]
- pIC50 (pAKT in BT474 cells): > 7.00
- % of modification [1]: A (percent of modification of PIK3CA protein ≥75%)

SMILES: C=CC(=O)N1Cc2cc(-c3nc(-c4cnn(C(C)C)c4)c4ccsc4c3-c3c(F)cc(F)cc3OC[C@@H](C)O)nn2C[C@H]1C [Compound 726]
- pIC50 (pAKT in BT474 cells): > 7.00
- % of modification [1]: A (percent of modification of PIK3CA protein ≥75%)

SMILES: C=CC(=O)N1Cc2cc(-c3nc(-c4cnn(CC(F)F)c4)c4ccsc4c3-c3c(F)cc(F)cc3OCCOC)nn2C[C@H]1C [Compound 727]
- pIC50 (pAKT in BT474 cells): > 7.00
- % of modification [1]: A (percent of modification of PIK3CA protein ≥75%)

SMILES: C=CC(=O)N1Cc2cc(-c3nc(-c4cnn(C(C)C)c4)c4ccsc4c3-c3c(F)cc(F)cc3OCCO)nn2[C@@H](C)C1 [Compound 728]
- pIC50 (pAKT in BT474 cells): 6.00 to 7.00
- % of modification [1]: D (percent of modification <25%)

SMILES: C=CC(=O)N1Cc2cc(-c3nc(-c4ccc5cn(C)nc5c4)c4ccsc4c3-c3c(F)cc(F)cc3OCCOC)nn2C[C@H]1C [Compound 737]
- pIC50 (pAKT in BT474 cells): > 7.00
- % of modification [1]: A (percent of modification of PIK3CA protein ≥75%)

SMILES: C=CC(=O)N1Cc2cc(-c3nc(-c4cnn(C(C)(C)CO)c4)c4ccsc4c3-c3c(F)cc(F)cc3OCCOC)nn2C[C@H]1C [Compound 738]
- pIC50 (pAKT in BT474 cells): > 7.00
- % of modification [1]: A (percent of modification of PIK3CA protein ≥75%)

SMILES: C=CC(=O)N1Cc2cc(-c3nc(-c4ccc5c(cnn5C)c4)c4ccsc4c3-c3c(F)cc(F)cc3OCCOC)nn2[C@@H](C)C1 [Compound 739]
- pIC50 (pAKT in BT474 cells): > 7.00
- % of modification [1]: A (percent of modification of PIK3CA protein ≥75%)

SMILES: C=CC(=O)N1Cc2cc(-c3nc(-c4cnnc(C)c4)c4ccsc4c3-c3c(F)cc(F)cc3OCCOC)nn2[C@@H](C)C1 [Compound 740]
- pIC50 (pAKT in BT474 cells): > 7.00
- % of modification [1]: A (percent of modification of PIK3CA protein ≥75%)

SMILES: C=CC(=O)N1CCn2nc(-c3nc(-c4cn(C)cn4)c4ccsc4c3-c3c(F)cc(F)cc3OCCOC)cc2[C@H]1C [Compound 741]
- pIC50 (pAKT in BT474 cells): > 7.00
- % of modification [1]: A (percent of modification of PIK3CA protein ≥75%)

SMILES: C=CC(=O)N1Cc2cc(-c3nc(-c4ccc5cn(C)nc5c4)c4ccsc4c3-c3c(F)cc(F)cc3OCCOC)nn2[C@@H](C)C1 [Compound 742]
- pIC50 (pAKT in BT474 cells): > 7.00
- % of modification [1]: A (percent of modification of PIK3CA protein ≥75%)

SMILES: C=CC(=O)N1Cc2cc(-c3nc(-c4cnnc(C)c4)c4ccsc4c3-c3c(F)cc(F)cc3OC[C@@H](C)O)nn2C[C@H]1C [Compound 743]
- pIC50 (pAKT in BT474 cells): > 7.00
- % of modification [1]: A (percent of modification of PIK3CA protein ≥75%)

SMILES: C=CC(=O)N1CCn2nc(-c3nc(-c4cn(C)cn4)c4ccsc4c3-c3c(F)cc(F)cc3OC[C@@H](C)O)cc2[C@H]1C [Compound 744]
- pIC50 (pAKT in BT474 cells): > 7.00
- % of modification [1]: A (percent of modification of PIK3CA protein ≥75%)

SMILES: C=CC(=O)N1Cc2cc(-c3nc(-c4cn(C)cn4)c4ccsc4c3-c3c(F)cc(F)cc3OC[C@@H](C)O)nn2C[C@H]1C [Compound 745]
- pIC50 (pAKT in BT474 cells): > 7.00
- % of modification [1]: A (percent of modification of PIK3CA protein ≥75%)

SMILES: C=CC(=O)N1Cc2cc(-c3nc(-c4ccc5c(c4)CS(=O)(=O)C5)c4ccsc4c3-c3c(F)cc(F)cc3OCCOC)nn2C[C@H]1C [Compound 746]
- pIC50 (pAKT in BT474 cells): > 7.00
- % of modification [1]: A (percent of modification of PIK3CA protein ≥75%)

SMILES: C=CC(=O)N1CCn2nc(-c3nc(-c4ccc5cn(C)nc5c4)c4ccsc4c3-c3c(F)cc(F)cc3OCCOC)cc2[C@H]1C [Compound 747]
- pIC50 (pAKT in BT474 cells): > 7.00
- % of modification [1]: A (percent of modification of PIK3CA protein ≥75%)

SMILES: C=CC(=O)N1CCn2nc(-c3nc(-c4ccc5ncn(C)c5c4)c4ccsc4c3-c3c(F)cc(F)cc3OC[C@@H](C)O)cc2[C@H]1C [Compound 748]
- pIC50 (pAKT in BT474 cells): > 7.00
- % of modification [1]: A (percent of modification of PIK3CA protein ≥75%)

SMILES: C=CC(=O)N1CCn2nc(-c3nc(-c4ccc5nn(C)cc5c4)c4ccsc4c3-c3c(F)cc(F)cc3OCCOC)cc2[C@H]1C [Compound 749]
- pIC50 (pAKT in BT474 cells): > 7.00
- % of modification [1]: A (percent of modification of PIK3CA protein ≥75%)

SMILES: C=CC(=O)N1CCn2nc(-c3nc(-c4cnc5c(c4)CNC(=O)C5)c4ccsc4c3-c3c(F)cc(F)cc3OCCOC)cc2[C@H]1C [Compound 750]
- pIC50 (pAKT in BT474 cells): > 7.00
- % of modification [1]: A (percent of modification of PIK3CA protein ≥75%)

SMILES: C=CC(=O)N1CCn2nc(-c3nc(-c4cnnc(C)c4)c4ccsc4c3-c3c(F)cc(F)cc3OC[C@@H](C)O)cc2[C@H]1C [Compound 751]
- pIC50 (pAKT in BT474 cells): > 7.00
- % of modification [1]: A (percent of modification of PIK3CA protein ≥75%)

SMILES: C=CC(=O)N1Cc2cc(-c3nc(-c4ccc5cn(C)nc5c4)c4ccsc4c3-c3c(F)cc(F)cc3OC[C@@H](C)O)nn2C[C@H]1C [Compound 752]
- pIC50 (pAKT in BT474 cells): > 7.00
- % of modification [1]: A (percent of modification of PIK3CA protein ≥75%)

Source: patent US20250230138A1, “COMPOUNDS HAVING A T-STRUCTURE FORMED BY AT LEAST FOUR CYCLES FOR USE IN THE TREATMENT OF CANCER AND OTHER INDICATIONS” (TheRas, Inc., priority 2022, published 2025)
